Among the data in ChEMBL document CHEMBL4813966, “Discovery of 3,6-disubstutited-imidazo[1,2-a]pyridine derivatives as a new class of CLK1 inhibitors” (Bioorg Med Chem Lett, 2021) are IC50, Activity and inhibition values, retold here.

Activity calls are given as the source filed them. The calls are words filed in the database; no cut-off is given here.

The target of assay [1] is T1, Dual specificity protein kinase CLK1 (Homo sapiens, UniProt P49759). Put plainly: Inhibition of recombinant human CLK1 (130 to end residues) using ERMRPRKRQGSVR as substrate incubated for 40 mins in presence of [gamma-33ATP] by scintillation counting based radiometry assay.
Target sequence in this assay (P49759 whole entry): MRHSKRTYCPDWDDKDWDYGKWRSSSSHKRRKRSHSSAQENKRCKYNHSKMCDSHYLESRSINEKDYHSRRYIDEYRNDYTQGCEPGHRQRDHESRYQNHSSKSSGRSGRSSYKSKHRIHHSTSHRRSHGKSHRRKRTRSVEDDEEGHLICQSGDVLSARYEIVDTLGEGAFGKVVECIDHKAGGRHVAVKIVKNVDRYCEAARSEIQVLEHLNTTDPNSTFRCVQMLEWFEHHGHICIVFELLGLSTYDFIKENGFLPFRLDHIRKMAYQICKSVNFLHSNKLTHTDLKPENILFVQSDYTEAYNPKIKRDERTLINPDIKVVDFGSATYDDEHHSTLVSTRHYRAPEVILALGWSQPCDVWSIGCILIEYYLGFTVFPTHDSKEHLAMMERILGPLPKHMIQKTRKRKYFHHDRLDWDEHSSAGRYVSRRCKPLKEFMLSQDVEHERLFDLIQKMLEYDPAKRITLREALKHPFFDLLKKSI
Assay [2] addresses Dual specificity protein kinase CLK2 (Homo sapiens, UniProt P49760). Put plainly: Inhibition of recombinant human CLK2 (138 to end residues) using YRRAAVPPSPSLSRHSSPHQS(p)EDEEE as substrate incubated for 40 mins in presence of [gamma-33ATP] by scintillation counting based radiometry assay.
Assay [3] deals with SK-OV-3. Kind of assay: Induction of autophagy in human SKOV-3 cells assessed as degradation of SQSTM1/p62 at 0.33 to 30 uM measured after 24 hrs by Western blot analysis. The assay is classed as functional, cell-based. The note with it: dose 0.33-30 µM. (In western blotting, separated proteins are transferred to a membrane and probed.)
Assay [4] deals with SK-OV-3. Kind of assay: Induction of autophagy in human SKOV-3 cells transfected with Ad-mRFP-GFP-LC3 assessed as induction of autolysosomes formation by measuring increase in number of red LC3 puncta at 0.1 uM measured after 24 hrs by confocal microscopic analysis. The format is functional, cell-based.
The subject of assay [5] is SK-OV-3. Put plainly: Induction of autophagy in human SKOV-3 cells assessed as increase in LC3-II protein level incubated for 24 hrs by Western blot analysis. The format is functional, cell-based. The note with it: dose 0.33-30 µM.
The target of assay [6] is T1, Dual specificity protein kinase CLK1. Put plainly: Inhibition of CLK1 in human SKOV-3 cells assessed as decrease in SRp75 phosphorylation after 24 hrs by Western blot analysis. The format is cell-based. The note with it: SK-OV-3, dose 0.33-30 µM.
Target sequence in this assay (P49759 whole entry, looked up): as the sequence (P49759 whole entry) above
Assay [7] deals with Dual specificity protein kinase CLK4 (Homo sapiens, UniProt Q9HAZ1). Put plainly: Inhibition of recombinant human CLK4 (128 to end residues) using YRRAAVPPSPSLSRHSSPHQS(p)EDEEE as substrate incubated for 40 mins in presence of [gamma-33ATP] by scintillation counting based radiometry assay.
Assay [8] concerns the target Dual specificity tyrosine-phosphorylation-regulated kinase 1B (Homo sapiens, UniProt Q9Y463). Kind of assay: Inhibition of recombinant full length human DYRK1B using RRRFRPASPLRGPPK as substrate incubated for 40 mins in presence of [gamma-33ATP] by scintillation counting based radiometry assay.
Assay [9] concerns SK-OV-3. Kind of assay: Induction of autophagy in human SKOV-3 cells assessed as increase in LC3-II to LC3-I ratio incubated for 24 hrs by Western blot analysis. The format is functional, cell-based. The note with it: dose 0.33-30 µM.
In assay [10] the test system is SK-OV-3. Put plainly: Induction of autophagic flux in human SKOV-3 cells assessed as SQSTM1/p62 protein level at 10 uM after 24 hrs in presence of V-ATPase inhibitor bafilomycin-A1 by Western blot analysis. The assay is classed as functional, cell-based.
Assay [11] has as its system SK-OV-3. Put plainly: Induction of autophagy in human SKOV-3 cells transfected with Ad-mRFP-GFP-LC3 assessed as induction of autophagosomes formation by measuring increase in number of yellow LC3 puncta at 0.1 uM measured after 24 hrs by confocal microscopic analysis. The assay is classed as functional, cell-based.
In assay [12] the target is T1, Dual specificity protein kinase CLK1. Put plainly: Inhibition of CLK1 in human SKOV-3 cells assessed as redistribution of SR protein from nucleoplasm to nuclear speckles at 0.1 uM after 24 hrs by immunofluorescence assay. The format is cell-based. The note with it: SK-OV-3.
Target sequence in this assay (P49759 whole entry, looked up): as the sequence (P49759 whole entry) above
In assay [13] the test system is SK-OV-3. Kind of assay: Induction of autophagic flux in human SKOV-3 cells assessed as LC3-II protein level at 10 uM after 24 hrs in presence of V-ATPase inhibitor bafilomycin-A1 by Western blot analysis. The format is functional, cell-based.
Assay [14] has as its target Dual specificity tyrosine-phosphorylation-regulated kinase 1A (Homo sapiens, UniProt Q13627). Kind of assay: Inhibition of recombinant full length human DYRK1A using RRRFRPASPLRGPPK as substrate incubated for 40 mins in presence of [gamma-33ATP] by scintillation counting based radiometry assay.
Assay [15] has as its target T1, Dual specificity protein kinase CLK1. Put plainly: Inhibition of CLK1 in human SKOV-3 cells assessed as decrease in SRp55 phosphorylation after 24 hrs by Western blot analysis. The note with it: SK-OV-3, dose 0.33-30 µM. The format is cell-based.
Target sequence in this assay (P49759 whole entry, looked up): as the sequence (P49759 whole entry) above
The target in assay [16] is Dual specificity protein kinase CLK3 (Homo sapiens, UniProt P49761). Kind of assay: Inhibition of recombinant full length human CLK3 using ERMRPRKRQGSVR as substrate incubated for 40 mins in presence of [gamma-33ATP] by scintillation counting based radiometry assay.
Sequence of Dual specificity protein kinase CLK3 (P49761 whole entry): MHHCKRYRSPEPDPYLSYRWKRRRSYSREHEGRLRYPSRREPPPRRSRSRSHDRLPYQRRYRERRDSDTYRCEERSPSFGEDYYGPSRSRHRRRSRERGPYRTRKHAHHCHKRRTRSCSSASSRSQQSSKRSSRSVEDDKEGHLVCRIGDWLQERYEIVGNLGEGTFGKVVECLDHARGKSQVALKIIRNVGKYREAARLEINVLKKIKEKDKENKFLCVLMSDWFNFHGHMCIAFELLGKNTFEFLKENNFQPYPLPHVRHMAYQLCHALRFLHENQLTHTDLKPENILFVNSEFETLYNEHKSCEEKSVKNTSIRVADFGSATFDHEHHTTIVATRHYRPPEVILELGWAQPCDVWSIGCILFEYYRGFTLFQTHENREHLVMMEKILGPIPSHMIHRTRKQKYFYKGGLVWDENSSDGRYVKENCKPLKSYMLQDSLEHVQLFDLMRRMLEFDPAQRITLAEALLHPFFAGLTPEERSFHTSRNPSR

Sequence of Dual specificity protein kinase CLK4 (Q9HAZ1 whole entry): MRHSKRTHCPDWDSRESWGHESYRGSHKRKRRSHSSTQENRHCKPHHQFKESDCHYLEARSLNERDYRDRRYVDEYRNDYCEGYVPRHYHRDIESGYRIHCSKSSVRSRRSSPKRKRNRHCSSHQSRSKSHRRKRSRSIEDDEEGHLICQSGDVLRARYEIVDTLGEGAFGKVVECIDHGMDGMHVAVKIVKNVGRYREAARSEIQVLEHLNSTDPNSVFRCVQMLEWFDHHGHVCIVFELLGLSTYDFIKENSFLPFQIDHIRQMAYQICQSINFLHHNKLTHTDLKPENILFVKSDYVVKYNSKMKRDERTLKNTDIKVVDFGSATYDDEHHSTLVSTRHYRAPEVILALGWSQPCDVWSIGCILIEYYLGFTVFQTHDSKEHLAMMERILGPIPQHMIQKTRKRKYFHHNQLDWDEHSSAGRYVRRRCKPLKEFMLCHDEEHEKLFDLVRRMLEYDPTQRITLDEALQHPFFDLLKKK
Sequence of Dual specificity protein kinase CLK2 (P49760 whole entry): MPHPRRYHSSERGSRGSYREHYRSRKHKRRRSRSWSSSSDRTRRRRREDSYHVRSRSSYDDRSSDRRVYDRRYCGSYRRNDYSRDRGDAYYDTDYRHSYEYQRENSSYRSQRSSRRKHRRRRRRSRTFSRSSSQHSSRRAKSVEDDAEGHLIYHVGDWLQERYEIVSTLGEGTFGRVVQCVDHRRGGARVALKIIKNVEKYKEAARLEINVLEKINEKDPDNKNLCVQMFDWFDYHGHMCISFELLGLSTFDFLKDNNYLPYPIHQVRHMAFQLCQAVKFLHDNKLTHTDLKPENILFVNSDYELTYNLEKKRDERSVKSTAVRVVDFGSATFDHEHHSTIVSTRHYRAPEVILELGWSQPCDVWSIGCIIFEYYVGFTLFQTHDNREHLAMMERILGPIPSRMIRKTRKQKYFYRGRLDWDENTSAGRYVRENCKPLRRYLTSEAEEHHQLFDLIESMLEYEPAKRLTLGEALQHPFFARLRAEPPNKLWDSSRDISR
Sequence of Dual specificity tyrosine-phosphorylation-regulated kinase 1B (Q9Y463 whole entry): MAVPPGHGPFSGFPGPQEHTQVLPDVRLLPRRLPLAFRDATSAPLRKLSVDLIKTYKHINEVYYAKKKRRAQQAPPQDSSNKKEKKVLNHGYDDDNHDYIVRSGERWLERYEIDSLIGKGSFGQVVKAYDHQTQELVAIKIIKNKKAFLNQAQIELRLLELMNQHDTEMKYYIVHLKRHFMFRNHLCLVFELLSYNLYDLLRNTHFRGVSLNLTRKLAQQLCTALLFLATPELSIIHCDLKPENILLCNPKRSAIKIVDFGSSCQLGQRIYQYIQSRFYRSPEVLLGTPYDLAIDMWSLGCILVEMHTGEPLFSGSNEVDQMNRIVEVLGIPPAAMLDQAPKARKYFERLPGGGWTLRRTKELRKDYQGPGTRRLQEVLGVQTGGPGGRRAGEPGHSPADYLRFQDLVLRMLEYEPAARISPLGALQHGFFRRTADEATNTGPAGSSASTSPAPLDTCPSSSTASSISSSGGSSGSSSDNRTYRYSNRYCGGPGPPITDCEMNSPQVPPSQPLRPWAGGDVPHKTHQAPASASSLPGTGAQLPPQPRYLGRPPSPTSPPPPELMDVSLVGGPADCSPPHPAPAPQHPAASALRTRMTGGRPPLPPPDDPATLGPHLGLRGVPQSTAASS

With `CNC(=O)c1cnc2ccc(-c3cnn(C)c3)cn12`, in assay [1], the IC50 (usually the concentration that inhibits the measured activity by half) turned out to be 23 nM.
The same measure, in the same setting: then `C[C@H](NC(=O)c1cnc2ccc(-c3ccc4ncccc4c3)cn12)c1ccccc1`, with 52 nM.
Regarding `CC(C)Oc1ccc(CNC(=O)c2cnc3ccc(-c4cnn(C)c4)cn23)cc1`, the IC50 in [1] turned out to be 8 nM.
With `C[C@@H](NC(=O)c1cnc2ccc(-c3cnn(C)c3)cn12)c1ccccc1`, the IC50 in assay [1] amounted to 14 nM.
As to `COc1ccc([C@@H](C)NC(=O)c2cnc3ccc(-c4cnn(C)c4)cn23)cc1`, the IC50 in assay [1] was determined as 8 nM.
For `Cn1cc(-c2ccc3ncc(C(=O)NCc4ccc(Cl)cc4)n3c2)cn1`, the half-maximal inhibitory concentration (IC50) in assay [1] came out at 14 nM.
The same measure, in the same setting: the figure for `COc1ccc(CNC(=O)c2cnc3ccc(-c4ccc5ccccc5c4)cn23)cc1` is > 10000 nM; for `C[C@@H](NC(=O)c1cnc2ccc(-c3ccc4ncccc4c3)cn12)c1ccccc1` it is 6 nM.
Still for that read-out and setting: the figure for `COc1ccc(NNC(=O)c2cnc3ccc(-c4ccc5ncccc5c4)cn23)cc1` is 5 nM.
On to `COc1ccc(CNC(=O)c2cnc3ccc(-c4ccc5ocnc5c4)cn23)cc1`, for which, in assay [1], the IC50 is 122 nM.
The same measure, in the same setting: then `COc1ccc([C@H](C)NC(=O)c2cnc3ccc(-c4cnn(C)c4)cn23)cc1`, with 809 nM.
For `COc1ccc(CNC(=O)c2cnc3ccc(-c4ccc5ncccc5c4)cn23)cc1`, the IC50 was 50 nM in assay [2]; 17 nM in assay [7]; 148 nM in [8]; 4 nM in assay [1]; 10 nM in assay [14]; > 10000 nM in assay [16]. In addition, the result in assay [3], in assay [4] and in assay [11] was Active. Besides, the Activity entry in assay [5] and in assay [9] was “Dose-Dependent Effect” each time. For the same compound, the inhibition entry in assay [6] and in assay [15] was “Dose-Dependent Effect” each time. Moreover, the outcome in [10] and in [13] was inactive. Further, the inhibition result in assay [12] is “Active”.
Turning to `COc1ccc(CNC(=O)c2cnc3ccc(-c4cnn(C)c4)cn23)cc1`, the IC50 in [1] came out at 6 nM.
Same read-out and setting: the figure for `COc1ccc(NC(=O)c2cnc3ccc(-c4cnn(C)c4)cn23)cc1` is 7 nM; for `COc1ccc([C@@H](C)NC(=O)c2cnc3ccc(-c4ccc5ncccc5c4)cn23)cc1` it is 6 nM.
For the compound `C[C@H](NC(=O)c1cnc2ccc(-c3cnn(C)c3)cn12)c1ccc(Cl)cc1`, the IC50 in assay [1] came out at 399 nM.
For `Cn1cc(-c2ccc3ncc(C(=O)NCc4ccccc4)n3c2)cn1`, the IC50 in assay [1] stood at 12 nM.
For the compound `COc1cccc(CNC(=O)c2cnc3ccc(-c4cnn(C)c4)cn23)c1`, the IC50 in assay [1] was found to be 11 nM.
Take `COc1ccc(CNC(=O)c2cnc3ccc(-c4ccncc4)cn23)cc1`: in assay [1], the IC50 was found to be 13 nM.
For the compound `C[C@@H](NC(=O)c1cnc2ccc(-c3cnn(C)c3)cn12)c1ccc(Cl)cc1`, the IC50 in assay [1] came out at 11 nM.
Regarding `COc1ccc(CNC(=O)c2cnc3ccc(-c4c(C)noc4C)cn23)cc1`, the IC50 in assay [1] was > 10000 nM.
Turning to `COc1ccc([C@H](C)NC(=O)c2cnc3ccc(-c4ccc5ncccc5c4)cn23)cc1`, the IC50 in assay [1] is 44 nM.
In the case of `C[C@H](NC(=O)c1cnc2ccc(-c3cnn(C)c3)cn12)c1ccccc1`, the IC50 in assay [1] was found to be 296 nM.
